According to ChEMBL document CHEMBL6134819, “Discovery of novel tranylcypromine-indazole-based derivatives as LSD1 inhibitors for acute myeloid leukemia treatment” (Eur J Med Chem, 2025):
Calls of active or inactive are those of the source. No cut-off for these calls is given here.

Legend:
MV4-11 [1] = experiment: Induction of apoptosis in human MV4-11 cells assessed as increase in early apoptosis measured after 48 hrs by Annexin V-FITC/PI double staining based flow cytometry analysis; type: functional, cell-based; conditions: dose 2-4 µmol/L
[2] = biological target: T1, Lysine-specific histone demethylase 1A (Homo sapiens, UniProt O60341); experiment: Inhibition of LSD1 in human MV4-11 cells assessed as increase in LSD1 protein level at 2 to 4 micromol/L measured after 48 hrs by Western blot analysis; type: cell-based; conditions: dose 2-4 µmol/L
MV4-11 [3] = experiment: Induction of apoptosis in human MV4-11 cells assessed as increase in cleaved PARP level at 2 to 4 micromol/L measured after 72 hrs by Western blot analysis; type: functional, cell-based; conditions: dose 2-4 µmol/L
MV4-11 [4] = experiment: Induction of apoptosis in human MV4-11 cells assessed as early apoptotic cells at 4 micromol/L measured after 48 hrs by Annexin V-FITC/PI double staining based flow cytometry analysis (reference value: 2.01 %); type: functional; conditions: dose 4 µmol/L, at 4 µM
[5] = AUC (0 to infinity) in male Sprague-Dawley rat at 10 mg/kg, po measured up to 24 hrs by LC-MS/MS analysis; type: ADME, organism-based; conditions: in vivo
MV4-11 [6] = experiment: Induction of apoptosis in human MV4-11 cells assessed as viable cells at 4 micromol/L measured after 48 hrs by Annexin V-FITC/PI double staining based flow cytometry analysis (reference value: 89.13%); type: functional; conditions: MV4-11, 48 h, dose 4 µmol/L, read-out: Activity
MV4-11 [7] = experiment: Antiproliferative activity against human MV4-11 cells assessed as inhibition of cell growth measured after 7 days by cell-titer glo assay; type: functional, cell-based; conditions: MV4-11, 168 h
[8] = Clearance in male Sprague-Dawley rat at 1 mg/kg, iv measured up to 24 hrs by LC-MS/MS analysis; type: ADME, organism-based; conditions: in vivo
[9] = AUC (0 to infinity) in male Sprague-Dawley rat at 1 mg/kg, iv measured up to 24 hrs by LC-MS/MS analysis; type: ADME, organism-based; conditions: in vivo
MV4-11 [10] = experiment: Induction of apoptosis in human MV4-11 cells assessed as increase in cleaved caspase-7 level at 2 to 4 micromol/L measured after 72 hrs by Western blot analysis; type: functional, cell-based; conditions: dose 2-4 µmol/L
[11] = biological target: T1, Lysine-specific histone demethylase 1A; experiment: Induction of thermal stabilization of LSD1 in human MV4-11 cells at 50 to 75 degree C by […] analysis; type: cell-based
[12] = Upregulation of CD86 expression in human MV4-11 cells at 4 micromol/L incubated for 48 hrs by flow cytometry analysis relative to control; type: functional; conditions: dose 4 µmol/L, at 4 µM
[13] = Half life in male Sprague-Dawley rat at 1 mg/kg, iv measured up to 24 hrs by LC-MS/MS analysis; type: ADME, organism-based; conditions: in vivo
MV4-11 [14] = experiment: Induction of apoptosis in human MV4-11 cells assessed as increase in cleaved caspase-3 level at 2 to 4 micromol/L measured after 72 hrs by Western blot analysis; type: functional, cell-based; conditions: dose 2-4 µmol/L
MV4-11 [15] = experiment: Induction of apoptosis in human MV4-11 cells assessed as necrotic cells at 4 micromol/L measured after 48 hrs by Annexin V-FITC/PI double staining based flow cytometry analysis (reference value: 1.16 %); type: functional; conditions: dose 4 µmol/L, at 4 µM
THP-1 = experiment: Antiproliferative activity against human THP-1 cells assessed as inhibition of cell growth measured after 7 days by cell-titer glo assay; type: functional, cell-based; conditions: THP-1, 168 h
[16] = Oral bioavailability in male Sprague-Dawley rat at 10 mg/kg measured up to 24 hrs by LC-MS/MS analysis; type: ADME, organism-based; conditions: in vivo
[17] = Metabolic stability in human liver microsomes assessed as half life measured up to 60 mins in presence of NADPH by LC-MS/MS analysis; type: ADME, Microsome
MV4-11 [18] = experiment: Induction of apoptosis in human MV4-11 cells assessed as early apoptotic cells at 2 micromol/L measured after 48 hrs by Annexin V-FITC/PI double staining based flow cytometry analysis (reference value: 2.01 %); type: functional; conditions: dose 2 µmol/L, at 2 µM
[19] = Metabolic stability in human liver microsomes assessed as intrinsic clearance measured up to 60 mins in presence of NADPH by LC-MS/MS analysis; type: ADME, Microsome; conditions: read-out: CLH
[20] = Metabolic stability in mouse liver microsomes assessed as intrinsic clearance measured up to 60 mins in presence of NADPH by LC-MS/MS analysis; type: ADME, Microsome; conditions: read-out: CLH
MV4-11 [21] = experiment: Induction of apoptosis in human MV4-11 cells assessed as late apoptotic cells at 3 micromol/L measured after 48 hrs by Annexin V-FITC/PI double staining based flow cytometry analysis (reference value: 7.70 %); type: functional; conditions: dose 3 µmol/L, at 3 µM
[22] = biological target: T1, Lysine-specific histone demethylase 1A; experiment: Inhibition of LSD1 in human MV4-11 cells assessed as increase in H3K4 expression level at 2 to 4 micromol/L measured after 48 hrs by Western blot analysis; type: cell-based; conditions: dose 2-4 µmol/L
[23] = biological target: Voltage-gated inwardly rectifying potassium channel KCNH2 (Homo sapiens, UniProt Q12809); experiment: Inhibition of human ERG by whole cell patch clamp assay; type: toxicity
[24] = Metabolic stability in mouse liver microsomes assessed as half life measured up to 60 mins in presence of NADPH by LC-MS/MS analysis; type: ADME, Microsome
[25] = AUC (0 to t) in male Sprague-Dawley rat at 10 mg/kg, po measured up to 24 hrs by LC-MS/MS analysis; type: ADME, organism-based; conditions: in vivo
MV4-11 [26] = experiment: Induction of apoptosis in human MV4-11 cells assessed as necrotic cells at 3 micromol/L measured after 48 hrs by Annexin V-FITC/PI double staining based flow cytometry analysis (reference value: 1.16 %); type: functional; conditions: dose 3 µmol/L, at 3 µM
MV4-11 [27] = experiment: Induction of apoptosis in human MV4-11 cells assessed as increase in late apoptosis measured after 48 hrs by Annexin V-FITC/PI double staining based flow cytometry analysis; type: functional, cell-based; conditions: dose 2-4 µmol/L
MV4-11 [28] = experiment: Induction of apoptosis in human MV4-11 cells assessed as late apoptotic cells at 2 micromol/L measured after 48 hrs by Annexin V-FITC/PI double staining based flow cytometry analysis (reference value: 7.70 %); type: functional; conditions: dose 2 µmol/L, at 2 µM
[29] = Octanol-water partition coefficient, logP of the compound; type: physicochemical
[30] = biological target: T2, Amine oxidase [flavin-containing] B (Homo sapiens, UniProt P27338); experiment: Inhibition of human N-terminal Flag-tagged MAOB extracted baculovirus infected in Sf9 cells measured after 0.5 hrs by MAO-Glo Assay; type: cell-based
T2 sequence (P27338 whole entry): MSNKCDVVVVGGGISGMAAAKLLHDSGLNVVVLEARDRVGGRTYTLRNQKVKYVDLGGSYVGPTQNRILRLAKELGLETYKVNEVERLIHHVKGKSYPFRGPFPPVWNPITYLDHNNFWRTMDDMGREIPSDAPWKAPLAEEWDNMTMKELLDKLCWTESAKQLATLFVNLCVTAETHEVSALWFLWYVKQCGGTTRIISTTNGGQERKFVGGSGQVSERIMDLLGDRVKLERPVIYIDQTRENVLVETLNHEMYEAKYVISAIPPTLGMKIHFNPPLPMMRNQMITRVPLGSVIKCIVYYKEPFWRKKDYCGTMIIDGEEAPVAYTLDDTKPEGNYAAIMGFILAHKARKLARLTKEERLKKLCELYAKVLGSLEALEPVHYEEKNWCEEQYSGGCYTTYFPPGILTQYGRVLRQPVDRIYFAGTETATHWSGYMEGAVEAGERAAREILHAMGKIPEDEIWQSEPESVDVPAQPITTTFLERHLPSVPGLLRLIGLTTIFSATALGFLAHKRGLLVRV

Sequence of Voltage-gated inwardly rectifying potassium channel KCNH2 (Q12809 whole entry): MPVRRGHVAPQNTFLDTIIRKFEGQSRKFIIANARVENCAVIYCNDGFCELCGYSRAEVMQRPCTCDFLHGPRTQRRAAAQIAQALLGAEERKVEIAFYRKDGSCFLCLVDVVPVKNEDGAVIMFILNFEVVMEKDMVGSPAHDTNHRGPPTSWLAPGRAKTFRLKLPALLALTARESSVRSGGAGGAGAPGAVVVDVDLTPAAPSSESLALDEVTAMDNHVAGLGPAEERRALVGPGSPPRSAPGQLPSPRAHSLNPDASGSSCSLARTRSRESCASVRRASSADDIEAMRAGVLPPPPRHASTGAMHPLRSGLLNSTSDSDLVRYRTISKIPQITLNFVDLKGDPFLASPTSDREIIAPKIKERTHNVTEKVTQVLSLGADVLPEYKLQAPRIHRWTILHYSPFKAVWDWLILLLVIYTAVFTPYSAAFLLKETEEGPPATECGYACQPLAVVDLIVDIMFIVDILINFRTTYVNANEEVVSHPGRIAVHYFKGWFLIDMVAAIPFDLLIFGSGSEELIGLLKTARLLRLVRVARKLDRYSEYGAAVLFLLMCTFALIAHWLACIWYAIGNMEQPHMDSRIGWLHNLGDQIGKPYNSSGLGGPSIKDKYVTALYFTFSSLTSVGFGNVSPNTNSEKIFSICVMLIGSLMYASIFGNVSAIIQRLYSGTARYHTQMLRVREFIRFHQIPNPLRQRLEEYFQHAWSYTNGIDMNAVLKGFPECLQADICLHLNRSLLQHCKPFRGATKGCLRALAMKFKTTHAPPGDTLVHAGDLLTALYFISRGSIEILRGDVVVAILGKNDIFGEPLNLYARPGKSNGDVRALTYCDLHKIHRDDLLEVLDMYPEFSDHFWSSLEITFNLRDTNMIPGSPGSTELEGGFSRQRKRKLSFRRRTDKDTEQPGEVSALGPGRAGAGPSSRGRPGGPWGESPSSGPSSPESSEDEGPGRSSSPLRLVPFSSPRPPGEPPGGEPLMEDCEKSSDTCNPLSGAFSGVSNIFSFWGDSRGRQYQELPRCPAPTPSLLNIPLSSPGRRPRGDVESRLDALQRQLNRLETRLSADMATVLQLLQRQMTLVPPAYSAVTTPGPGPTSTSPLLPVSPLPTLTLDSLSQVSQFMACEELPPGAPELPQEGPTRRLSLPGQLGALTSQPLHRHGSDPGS

inhibition [2]: Active | AUC(0-inf) [5]: 290 ng·h/mL | IC50 (MV4-11 [7]): 1.4 µM | clearance [8]: 35.3 mL/min/kg | AUC(0-inf) [9]: 483 ng·h/mL | Activity [11]: Active | half-life [13]: 41.4 min | IC50 (THP-1): 1.96 µM | bioavailability [16]: 6.01% | half-life [17]: 11.6 min | CLint scaled [19]: 108 mL/min/kg | CLint scaled [20]: 261 mL/min/kg | inhibition [22]: Active | half-life [24]: 5.3 min | AUC(0-t) at 24 h [25]: 280 ng·h/mL | logP [29]: 4.2 | IC50 [30]: 2.65 µM
SMILES: Cl.O=S(=O)(c1ccccc1)n1ncc2cc(-n3cc(CN[C@@H]4C[C@H]4c4ccc(F)c(F)c4)nn3)ccc21
Activity (MV4-11 [1]): Dose-dependent-effect | Activity (MV4-11 [3]): Active | Activity (MV4-11 [4]): 4.28% | viability at 4 µM (MV4-11 [6]): 77.4% | Activity (MV4-11 [10]): Active | Activity [12]: 33.76% | Activity (MV4-11 [14]): Active | Activity (MV4-11 [15]): 2.91% | Activity (MV4-11 [18]): 2.52% | Activity (MV4-11 [21]): 13.22% | IC50 [23]: 0.576 µM | Activity (MV4-11 [26]): 2.8% | Activity (MV4-11 [27]): Dose-dependent-effect | Activity (MV4-11 [28]): 13.76%
